Test [1] deals with demineralized bone matrix (DBM). As to the kind of experiment: Biotinylated peptide binding to demineralized bone matrix (ELISA-type, streptavidin-alkaline phosphatase/pNPP). The arrangement: species or system human. The method, then:
Relative binding strengths of the peptides to bone, also used as a measure of binding specificity, were determined by testing serial dilutions of the peptide for binding to bone, as represented by DBM. Plotting the absorbance observed across the concentration range for each peptide sequence yielded a binding curve of the peptides to its target substrate from which can be determined an EC50. The goal of the screenings and selections was to identify one or more peptides that bind to the selected substrate with binding specificity, with an EC50 of less than or equal to about 10 μM, and for some embodiments, in the nanomolar range (<1 μM).
As a specific example, DBM was placed in a microtiter plate at a concentration of 3 mg equivalents per well, and then the wells were blocked with buffer containing 1% BSA for 1 hour at room temperature. The buffer containing 1% BSA was then aspirated from each well, and added to the wells were the serial dilutions of biotinylated peptide. The microtiter plates were incubated for 1 hour at room temperature on a plate shaker. The DBM was then allowed to settle, and the buffer was then aspirated from the wells. The DBM was washed three times with buffer-T, and then streptavidin-alkaline phosphatase was added. The microtiter plates were incubated for 1 hour at room temperature on a plate shaker. The DBM was then allowed to settle, and the buffer was then aspirated from the wells. The DBM was washed three times with buffer-T, pNPP (p-nitrophenyl phosphate) was used to develop the assay, and the absorbance was recorded at 405 nm. An estimate of the relative affinity (binding specificity, EC50) of a peptide for bone can be made by determining the concentration of peptide that gives one-half the maximal signal in the assay.
Example 1 illustrates methods to determine the relative binding strengths of peptide to bone. […] A biotin molecule was linked to the C-terminal lysine. Also shown in Table 3 are the relative binding strengths expressed as EC50 (μM) to bone as represented by DBM of human origin. It is noted that the EC50 values were the same or substantially similar when DBM of rabbit origin was used.
Relative binding strength embodiments of the compositions to bone, also used as a measure of binding specificity, were determined by testing serial dilutions of the composition for binding to bone, as described in Example 1 Section B. Plotting the absorbance observed across the concentration range for each composition yielded a binding curve and rough dissociation constant of the composition for bone. Similar to a peptide having binding specificity for bone from which the composition is made, one property of the composition embodiments is that they bind to bone with binding specificity as measured by an EC50 of less than or equal to about 10 μM, and for some embodiments, in the nanomolar range (<1 μM). Using the methods outlined in Example 1B herein, assayed were the relative binding strengths of […] illustrative composition embodiments which include the amino acid sequences shown in SEQ ID NOs: 137, 138, 139, 140, 141 & 142, see Table 7, and synthesized to include a C-terminal amino linker which was biotinylated to facilitate determination of the relative binding strengths to bone. Shown in Table 8 are the relative binding strengths of composition embodiments to bone, as represented by DBM, expressed as EC50 (in μM).
Background: In an ELISA, binding on a coated surface is turned into a signal by an enzyme label.

Test [2] deals with cancellous bone (CNB). Description: Biotinylated peptide binding to cancellous bone. The method, then:
(§1) Relative binding strengths of the peptides to bone, also used as a measure of binding specificity, were determined by testing serial dilutions of the peptide for binding to bone, as represented by DBM. Plotting the absorbance observed across the concentration range for each peptide sequence yielded a binding curve of the peptides to its target substrate from which can be determined an EC50. The goal of the screenings and selections was to identify one or more peptides that bind to the selected substrate with binding specificity, with an EC50 of less than or equal to about 10 μM, and for some embodiments, in the nanomolar range (<1 μM). […] As a specific example, DBM was placed in a microtiter plate at a concentration of 3 mg equivalents per well, and then the wells were blocked with buffer containing 1% BSA for 1 hour at room temperature. The buffer containing 1% BSA was then aspirated from each well, and added to the wells were the serial dilutions of biotinylated peptide. The microtiter plates were incubated for 1 hour at room temperature on a plate shaker. The DBM was then allowed to settle, and the buffer was then aspirated from the wells. The DBM was washed three times with buffer-T, and then streptavidin-alkaline phosphatase was added. The microtiter plates were incubated for 1 hour at room temperature on a plate shaker. The DBM was then allowed to settle, and the buffer was then aspirated from the wells. The DBM was washed three times with buffer-T, pNPP (p-nitrophenyl phosphate) was used to develop the assay, and the absorbance was recorded at 405 nm. An estimate of the relative affinity (binding specificity, EC50) of a peptide for bone can be made by determining the concentration of peptide that gives one-half the maximal signal in the assay. Using the methodology illustrated in Example 1, the peptides illustrated in Table 3 were also tested for relative binding strength to demineralized cortical bone, and to cancellous bone, additional evidence of binding specificity for bone.

For test [3], the target named is demineralized cortical bone (DCB). Description: Biotinylated peptide binding to demineralized cortical bone. The method, then:
as §1

The mark [4] stands for this setting: bone as represented by DBM, biotinylated composition, read-out: Binding specificity for bone EC50 (compositions X1-J-X2).
Setting [5] is: DBM of human origin, biotinylated peptide, read-out: Binding specificity for bone (e.g., DBM) EC50.
The mark [6] stands for this setting: demineralized bone matrix, read-out: EC50 (μM) for DBM.

Where two headings read alike, the source gives them in different places. Where a SMILES comes first, the peptide text is derived from it. Where no end group is shown, it is not given here. [ ]: non-standard residue; d: D form. The star is where a group is joined. Biotin = O=C1N[C@H]2[C@H](CS[C@H]2CCCCC(=O)*)N1; PEG10 = NCCOCCOCCOCCOCCOCCOCCOCCOCCOCCOCCC(=O)O

Consider `CC(C)C[C@H](NC(=O)[C@H](CO)NC(=O)[C@H](CO)NC(=O)[C@H](Cc1ccccc1)NC(=O)[C@H](C)NC(=O)[C@H](CCC(=O)O)NC(=O)[C@H](Cc1c[nH]c2ccccc12)NC(=O)[C@H](C)NC(=O)CNC(=O)[C@H](C)NC(=O)CCOCCOCCOCCOCCOCCOCCOCCOCCOCCOCCNC(=O)CNC(=O)[C@H](CCCNC(=N)N)NC(=O)[C@H](CO)NC(=O)[C@H](CO)NC(=O)[C@H](C)NC(=O)[C@H](C)NC(=O)CNC(=O)[C@H](CO)NC(=O)CNC(=O)[C@H](Cc1c[nH]c2ccccc12)NC(=O)[C@H](Cc1c[nH]c2ccccc12)NC(=O)[C@H](Cc1c[nH]c2ccccc12)NC(=O)[C@H](CO)NC(=O)CNC(=O)[C@H](Cc1ccccc1)NC(=O)[C@@H](N)CO)C(=O)N[C@@H](CO)C(=O)NCC(=O)N[C@@H](CO)C(=O)N[C@@H](CCCNC(=N)N)C(=O)N[C@H](C(=O)NCC(=O)N[C@@H](CO)C(=O)N[C@@H](CO)C(=O)NCC(=O)N[C@@H](CCCCNC(=O)CCCC[C@@H]1SC[C@@H]2NC(=O)N[C@@H]21)C(N)=O)C(C)C` [compound 142] (H-SFGSWWWGSGAASSRG[PEG10]AGAWEAFSSLSGSRVGSSGK(Biotin)-NH2; N-terminus and C-terminus assumed), for which, in test [1] (setting [4]), the EC50 (as a rule, the concentration at which the effect is half-maximal) is < 0.5 µM.

In the case of `CC[C@H](C)[C@H](NC(=O)[C@@H](N)CO)C(=O)N[C@@H](Cc1ccccc1)C(=O)N[C@@H](CO)C(=O)N[C@H](C(=O)N[C@@H](Cc1c[nH]c2ccccc12)C(=O)N[C@@H](CC(N)=O)C(=O)N1CCC[C@H]1C(=O)N[C@@H](Cc1c[nH]c2ccccc12)C(=O)N[C@@H](CO)C(=O)N1CCC[C@H]1C(=O)N[C@@H](Cc1ccc(O)cc1)C(=O)N[C@@H](CO)C(=O)N[C@H](C(=O)N[C@@H](CO)C(=O)N[C@@H](CCCNC(=N)N)C(=O)NCC(=O)N[C@@H](CO)C(=O)N[C@@H](CO)C(=O)NCC(=O)N[C@@H](CCCCNC(=O)CCCC[C@@H]1SC[C@@H]2NC(=O)N[C@@H]21)C(=O)O)C(C)C)[C@@H](C)O` [compound 40] (H-SIFSTWNPWSPYSVSRGSSGK(Biotin)-OH), the EC50 in test [2], in test [1] (setting [5]), in test [1] (setting [6]) and in test [3] was < 1 µM throughout.

For “SFGSWWWGSGAASSRGSSGGGALGFPLKGEVVEGWAGSSGK(Biotin) [compound 140]”, the half-maximal effective concentration (EC50) in test [1] (setting [4]) is < 0.5 µM.

For the molecule `CC(C)[C@H](NC(=O)[C@@H]1CCCN1C(=O)[C@H](C)NC(=O)[C@H](C)NC(=O)[C@H](CO)NC(=O)CNC(=O)[C@H](CC(N)=O)NC(=O)[C@H](Cc1c[nH]c2ccccc12)NC(=O)[C@H](Cc1ccccc1)NC(=O)CNC(=O)[C@H](Cc1c[nH]c2ccccc12)NC(=O)[C@H](Cc1c[nH]c2ccccc12)NC(=O)[C@@H](N)CO)C(=O)N[C@@H](Cc1c[nH]c2ccccc12)C(=O)N[C@@H](CO)C(=O)N[C@@H](CCCNC(=N)N)C(=O)NCC(=O)N[C@@H](CO)C(=O)N[C@@H](CO)C(=O)NCC(=O)N[C@@H](CCCCNC(=O)CCCC[C@@H]1SC[C@@H]2NC(=O)N[C@@H]21)C(=O)O` [compound 41] (H-SWWGFWNGSAAPVWSRGSSGK(Biotin)-OH), the 50% effective concentration (EC50) in test [2] is ≤ 0.1 µM; in test [1] (setting [5]) it was < 0.1 µM; in test [1] (setting [6]), < 0.1 µM; in test [3], < 0.1 µM.

Consider `C[C@H](NC(=O)CNC(=O)[C@H](CO)NC(=O)CNC(=O)[C@H](Cc1c[nH]c2ccccc12)NC(=O)[C@H](Cc1c[nH]c2ccccc12)NC(=O)[C@H](Cc1c[nH]c2ccccc12)NC(=O)[C@H](CO)NC(=O)CNC(=O)[C@H](Cc1ccccc1)NC(=O)[C@@H](N)CO)C(=O)N[C@@H](C)C(=O)N[C@@H](CO)C(=O)N[C@@H](CO)C(=O)N[C@@H](CCCNC(=N)N)C(=O)NCC(=O)N[C@@H](CO)C(=O)N[C@@H](CO)C(=O)NCC(=O)N[C@@H](CCCCNC(=O)CCCC[C@@H]1SC[C@@H]2NC(=O)N[C@@H]21)C(=O)O` [compound 42] (H-SFGSWWWGSGAASSRGSSGK(Biotin)-OH), for which the concentration giving a half-maximal response (EC50) in test [2] was < 0.5 µM; in test [1] (setting [5]) it was < 0.1 µM; in test [1] (setting [6]), < 0.1 µM; in test [3], < 0.1 µM.

As to `CC(C)C[C@H](NC(=O)[C@H](CO)NC(=O)[C@H](CO)NC(=O)[C@H](Cc1ccccc1)NC(=O)[C@H](C)NC(=O)[C@H](CCC(=O)O)NC(=O)[C@H](Cc1c[nH]c2ccccc12)NC(=O)[C@H](C)NC(=O)CNC(=O)[C@H](C)NC(=O)CNC(=O)[C@H](CO)NC(=O)[C@H](CO)NC(=O)CNC(=O)[C@H](CCCNC(=N)N)NC(=O)[C@H](CO)NC(=O)[C@H](Cc1c[nH]c2ccccc12)NC(=O)[C@@H](NC(=O)[C@@H]1CCCN1C(=O)[C@H](C)NC(=O)[C@H](C)NC(=O)[C@H](CO)NC(=O)CNC(=O)[C@H](CC(N)=O)NC(=O)[C@H](Cc1c[nH]c2ccccc12)NC(=O)[C@H](Cc1ccccc1)NC(=O)CNC(=O)[C@H](Cc1c[nH]c2ccccc12)NC(=O)[C@H](Cc1c[nH]c2ccccc12)NC(=O)[C@@H](N)CO)C(C)C)C(=O)N[C@@H](CO)C(=O)NCC(=O)N[C@@H](CO)C(=O)N[C@@H](CCCNC(=N)N)C(=O)N[C@H](C(=O)NCC(=O)N[C@@H](CO)C(=O)N[C@@H](CO)C(=O)NCC(=O)N[C@@H](CCCCNC(=O)CCCC[C@@H]1SC[C@@H]2NC(=O)N[C@@H]21)C(=O)O)C(C)C` [compound 138] (H-SWWGFWNGSAAPVWSRGSSGAGAWEAFSSLSGSRVGSSGK(Biotin)-OH; N-terminus and C-terminus assumed), in test [1] (setting [4]), the EC50 is < 0.1 µM.

In the case of “SWWGFWNGSAAPVWSRGSSGAGALGFPLKGEVVEGWAGSSGK(Biotin) [compound 139]”, the EC50 in test [1] (setting [4]) was < 0.5 µM.

Consider `CC(C)C[C@H](NC(=O)[C@H](CO)NC(=O)[C@H](CO)NC(=O)[C@H](Cc1ccccc1)NC(=O)[C@H](C)NC(=O)[C@H](CCC(=O)O)NC(=O)[C@H](Cc1c[nH]c2ccccc12)NC(=O)[C@H](C)NC(=O)CNC(=O)CNC(=O)CNC(=O)CCOCCOCCOCCOCCOCCOCCOCCOCCOCCOCCNC(=O)CNC(=O)[C@H](CCCNC(=N)N)NC(=O)[C@H](CO)NC(=O)[C@H](CO)NC(=O)[C@H](C)NC(=O)[C@H](C)NC(=O)CNC(=O)[C@H](CO)NC(=O)CNC(=O)[C@H](Cc1c[nH]c2ccccc12)NC(=O)[C@H](Cc1c[nH]c2ccccc12)NC(=O)[C@H](Cc1c[nH]c2ccccc12)NC(=O)[C@H](CO)NC(=O)CNC(=O)[C@H](Cc1ccccc1)NC(=O)[C@@H](N)CO)C(=O)N[C@@H](CO)C(=O)NCC(=O)N[C@@H](CO)C(=O)N[C@@H](CCCNC(=N)N)C(=O)N[C@H](C(=O)NCC(=O)N[C@@H](CO)C(=O)N[C@@H](CO)C(=O)NCC(=O)N[C@@H](CCCCNC(=O)CCCC[C@@H]1SC[C@@H]2NC(=O)N[C@@H]21)C(N)=O)C(C)C` [compound 141] (H-SFGSWWWGSGAASSRG[PEG10]GGGAWEAFSSLSGSRVGSSGK(Biotin)-NH2; N-terminus and C-terminus assumed), for which the EC50 in test [1] (setting [4]) was < 0.5 µM.

In the case of “SWWGFWNGSAAPVWSRGSSESAGAWEAFSSLSGSRVGSSGK(Biotin) [compound 137]”, in test [1] (setting [4]), the EC50 is < 0.5 µM.

(Values after patent US7977313B2, “Methods and compositions for promoting localization of pharmaceutically active agents to bone” (Affinergy, Inc., priority 2007, dated 2011).)
